Measured values from US9169254B2, “Spiroimidazolone derivative” (Chugai Seiyaku Kabushiki Kaisha, priority 2009, dated 2015).

Molecular target: T1, human PTH1 receptor (Homo sapiens, UniProt Q03431)
T1 sequence (Q03431 27-593): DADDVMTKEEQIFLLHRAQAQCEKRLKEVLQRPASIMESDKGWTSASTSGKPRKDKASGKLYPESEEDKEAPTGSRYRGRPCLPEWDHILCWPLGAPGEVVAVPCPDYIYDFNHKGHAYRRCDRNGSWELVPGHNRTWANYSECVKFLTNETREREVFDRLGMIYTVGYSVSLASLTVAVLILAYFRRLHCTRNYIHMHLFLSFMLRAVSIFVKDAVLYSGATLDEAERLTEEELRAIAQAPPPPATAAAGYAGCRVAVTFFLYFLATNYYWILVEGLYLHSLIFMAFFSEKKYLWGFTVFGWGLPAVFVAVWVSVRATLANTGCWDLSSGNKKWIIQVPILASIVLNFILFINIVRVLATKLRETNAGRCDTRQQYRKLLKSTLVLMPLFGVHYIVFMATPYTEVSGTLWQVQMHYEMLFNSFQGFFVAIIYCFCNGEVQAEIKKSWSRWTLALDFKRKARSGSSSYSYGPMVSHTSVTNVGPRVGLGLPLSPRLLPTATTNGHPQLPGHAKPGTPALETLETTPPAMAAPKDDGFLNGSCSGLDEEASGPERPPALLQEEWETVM
Test: In vitro cAMP signal activity in HKRK-B7 cells (LLC-PK1 cells overexpressing the human PTH1 receptor)
Type: cell-based
Settings: 0.1 µM

SMILES | cAMP production activity (%)
Cc1cc(N(C)C(N)=O)cc(C)c1CC[S@TB4](=O)(=O)N1CCC2(CC1)N=C(c1ccc([Si](C)(C)C)cc1)NC2=O [Compound 1139, 1-(3,5-dimethyl-4-{2-[4-oxo-2-(4-trimethylsilanyl-phenyl)-1,3,8-triaza-spiro[4.5]dec-1-ene-8-sulfonyl]-ethyl}-phenyl)-1-methyl-urea] | 86%

Same assay, conditions: HKRK-B7 cells; compound at 1×10^−3 M; cAMP produced as percentage of that produced by hPTH(1-34) at 100 nM

SMILES | cAMP production activity (%)
CC(=O)OC[C@H](CN(C(C)=O)c1ccc(CCS(=O)(=O)N2CCC3(CC2)N=C(c2cccc(C(F)(F)F)c2)NC3=O)c(C)c1)OC(C)=O [Compound 150, Acetic acid (S)-1-acetoxymethyl-2-[acetyl-(3-methyl-4-{2-[4-oxo-2-(3-trifluoromethyl-phenyl)-1,3,8-triaza-spiro[4.5]dec-1-ene-8-sulfonyl]-ethyl}-phenyl)-amino]-ethyl ester] | 62%
Cc1cc(OCCC(O)CO)ccc1/C=C/S(=O)(=O)N1CCC2(CC1)N=C(c1cccc(C(F)(F)F)c1F)NC2=O (stereo not shown) [Compound 247, 8-{(E)-2-[4-(3,4-Dihydroxy-butoxy)-2-methyl-phenyl]-ethenesulfonyl}-2-(2-fluoro-3-trifluoromethyl-phenyl)-1,3,8-triaza-spiro[4.5]dec-1-en-4-one] | 81%
Cc1cc(N2C(=O)CNC2=O)ccc1/C=C/S(=O)(=O)N1CCC2(CC1)N=C(c1cccc(OC(F)(F)F)c1)NC2=O [Compound 618, 3-(3-methyl-4-{(E)-2-[4-oxo-2-(3-trifluoromethoxy-phenyl)-1,3,8-triaza-spiro[4.5]dec-1-ene-8-sulfonyl]-vinyl}-phenyl)-imidazolidine-2,4-dione] | 121%
Cc1cc2ccc1CCS(=O)(=O)N1CCC3(CC1)N=C(NC3=O)c1cc(cc(C(F)(F)F)c1)OCCOCCOCCN(C)C2=O [Compound 1438] | 40%
O=C1NC(c2ccc(Cl)cc2Cl)=NC12CCN(S(=O)(=O)c1ccc(F)c(Cl)c1)CC2 [Compound 49, 8-(3-chloro-4-fluoro-benzenesulfonyl)-2-(2,4-dichloro-phenyl)-1,3,8-triaza-spiro[4.5]dec-1-en-4-one] | 29%
Cc1cc(NCC(=O)NCCN(C)C)ccc1CCS(=O)(=O)N1CCC2(CC1)N=C(c1cccc(OC(F)(F)F)c1)NC2=O [Compound 665, N-(2-Dimethylamino-ethyl)-2-(3-methyl-4-{2-[4-oxo-2-(3-trifluoromethoxy-phenyl)-1,3,8-triaza-spiro[4.5]dec-1-ene-8-sulfonyl]-ethyl}-phenylamino)-acetamide] | 54%
CCCCCCCCCC1=NC2(CCN(S(=O)(=O)/C=C/c3ccc(N4C(=O)CNC4=O)cc3C)CC2)C(=O)N1 [Compound 536, 3-{3-Methyl-4-[(E)-2-(2-nonyl-4-oxo-1,3,8-triaza-spiro[4.5]dec-1-ene-8-sulfonyl)-vinyl]-phenyl}-imidazolidine-2,4-dione] | 72%
O=C1NC(c2cccc(OC(F)(F)F)c2)=NC12CCN(S(=O)(=O)CCc1cccc3cnccc13)CC2 [Compound 653, 8-(2-Isoquinolin-5-yl-ethanesulfonyl)-2-(3-trifluoromethoxy-phenyl)-1,3,8-triaza-spiro[4.5]dec-1-en-4-one] | 67%
Cc1cc(NCCO)ccc1CCS(=O)(=O)N1CCC2(CC1)N=C(c1cccc(OC(F)(F)F)c1)NC2=O [Compound 159, 8-{2-[4-(2-Hydroxy-ethylamino)-2-methyl-phenyl]-ethanesulfonyl}-2-(3-trifluoromethoxy-phenyl)-1,3,8-triaza-spiro[4.5]dec-1-en-4-one] | 96%
Cc1cc(C(=O)N2CCC(O)(CF)CC2)cc(C)c1/C=C/S(=O)(=O)N1CCC2(CC1)N=C(c1ccc(C(F)(F)F)c(OCC(F)(F)C(F)F)c1)NC2=O [Compound 1274, 8-{(E)-2-[4-(4-fluoromethyl-4-hydroxy-piperidine-1-carbonyl)-2,6-dimethyl-phenyl]-ethenesulfonyl}-2-[3-(2,2,3,3-tetrafluoro-propoxy)-4-trifluoromethyl-phenyl]-1,3,8-triaza-spiro[4.5]dec-1-en-4-one] | 81%
Cc1cc(N(C)C(N)=O)cc(C)c1CCS(=O)(=O)N1CCC2(CC1)N=C(CCCCCCCCCCCC(N)=O)NC2=O [Compound 1174, 12-(8-{2-[2,6-dimethyl-4-(1-methyl-ureido)-phenyl]-ethanesulfonyl}-4-oxo-1,3,8-triaza-spiro[4.5]dec-1-en-2-yl)-dodecanoic acid amide] | 91%
CCCCS(=O)(=O)N1CCC2(CC1)N=C(c1ccc(Cl)cc1Cl)NC2=O [Compound 46, 8-(butane-1-sulfonyl)-2-(2,4-dichloro-phenyl)-1,3,8-triaza-spiro[4.5]dec-1-en-4-one] | 17%
O=C1NC(C2CCCN(S(=O)(=O)Cc3ccccc3)C2)=NC12CCN(S(=O)(=O)CCc1cccc3ccccc13)CC2 (stereo not shown) [Compound 43, 8-(2-naphthalen-1-yl-ethanesulfonyl)-2-(1-phenylmethanesulfonyl-piperidin-3-yl)-1,3,8-triaza-spiro[4.5]dec-1-en-4-one] | 39%
CCCCCCCC#CC1=NC2(CCN([S@TB17](=O)(=O)CCc3c(C)cc(N(C)C(N)=O)cc3C)CC2)C(=O)N1 [Compound 1083, 1-{3,5-dimethyl-4-[2-(2-non-1-ynyl-4-oxo-1,3,8-triaza-spiro[4.5]dec-1-ene-8-sulfonyl)-ethyl]-phenyl}-1-methyl-urea] | 113%

Next, values leading:

cAMP production activity (%) | SMILES
120% | Cc1cc(N(C)C(N)=O)c(Cl)c(C)c1CCS(=O)(=O)N1CCC2(CC1)N=C(C1CCC(CC(F)(F)F)CC1)NC2=O (stereo not shown) [Compound 937, 1-[2-chloro-3,5-dimethyl-4-(2-{4-oxo-2-[4-(2,2,2-trifluoro-ethyl)-cyclohexyl]-1,3,8-triaza-spiro[4.5]dec-1-ene-8-sulfonyl}-ethyl)-phenyl]-1-methyl-urea]
82% | CC(=O)NCc1cc(C)c(/C=C/S(=O)(=O)N2CCC3(CC2)N=C(C2CCC(C)CC2)NC3=O)c(C)c1 (stereo not shown) [Compound 522, N-(3,5-dimethyl-4-{(E)-2-[2-(4-methyl-cyclohexyl)-4-oxo-1,3,8-triaza-spiro[4.5]dec-1-ene-8-sulfonyl]-vinyl}-benzyl)-acetamide]
103% | COc1c(N(C)C(N)=O)cc(C)c(/C=C/S(=O)(=O)N2CCC3(CC2)N=C([C@H]2CC[C@H](C)CC2)NC3=O)c1C [Compound 693, 1-(2-Methoxy-3,5-dimethyl-4-{(E)-2-[2-(4-methyl-cyclohexyl)-4-oxo-1,3,8-triaza-spiro[4.5]dec-1-ene-8-sulfonyl]-vinyl}-phenyl)-1-methyl-urea]
101% | CCCCCCCCCC1=NC2(CCN(S(=O)(=O)/C=C/c3c(C)cc(N(C)C(N)=O)cc3C)CC2)C(=O)N1 [Compound 692, 1-{3,5-Dimethyl-4-[(E)-2-(2-nonyl-4-oxo-1,3,8-triaza-spiro[4.5]dec-1-ene-8-sulfonyl)-vinyl]-phenyl}-1-methyl-urea]
104% | Cc1cc(N(C[C@H](O)CO)C(N)=O)cc(C)c1/C=C/S(=O)(=O)N1CCC2(CC1)N=C(C1CCC(C)CC1)NC2=O (stereo partly drawn) [Compound 733, 1-((S)-2,3-Dihydroxy-propyl)-1-(3,5-dimethyl-4-{(E)-2-[2-(4-methyl-cyclohexyl)-4-oxo-1,3,8-triaza-spiro[4.5]dec-1-ene-8-sulfonyl]-vinyl}-phenyl)-urea]
97% | Cc1cc(N(C)C(N)=O)cc(C)c1CCS(=O)(=O)N1CCC2(CC1)N=C(C1CCC(C)(C)CC1)NC2=O [Compound 938, 1-(4-{2-[2-(4,4-dimethyl-cyclohexyl)-4-oxo-1,3,8-triaza-spiro[4.5]dec-1-ene-8-sulfonyl]-ethyl}-3,5-dimethyl-phenyl)-1-methyl-urea]
69% | CC(=O)Nc1ccc(CCS(=O)(=O)N2CCC3(CC2)N=C(C2CCC(C(F)F)CC2)NC3=O)c(C)c1 (stereo not shown) [Compound 1075, N-(4-{2-[2-(4-difluoromethyl-cyclohexyl)-4-oxo-1,3,8-triaza-spiro[4.5]dec-1-ene-8-sulfonyl]-ethyl}-3-methyl-phenyl)-acetamide]
39% | CC1(C)OCC(Cn2ccc3c(/C=C/S(=O)(=O)N4CCC5(CC4)N=C(C4CCOCC4)NC5=O)cccc32)O1 (stereo not shown) [Compound 246, 8-{(E)-2-[1-(2,2-dimethyl-[1,3]dioxolan-4-ylmethyl)-1H-indol-4-yl]-ethenesulfonyl}-2-(tetrahydro-pyran-4-yl)-1,3,8-triaza-spiro[4.5]dec-1-en-4-one]
105% | Cc1cc(C(=O)N2CCC(C)(O)CC2)cc(C)c1/C=C/[S@TB4](=O)(=O)N1CCC2(CC1)N=C(c1ccc(C(F)(F)F)c(C(F)(F)F)c1)NC2=O [Compound 1095, 2-(3,4-bis-trifluoromethyl-phenyl)-8-{(E)-2-[4-(4-hydroxy-4-methyl-piperidine-1-carbonyl)-2,6-dimethyl-phenyl]-ethenesulfonyl}-1,3,8-triaza-spiro[4.5]dec-1-en-4-one]
77% | Cc1cc(N(C)C(N)=O)ccc1/C=C/S(=O)(=O)N1CCC2(CC1)N=C(c1cccc(OC(F)(F)F)c1)NC2=O [Compound 458, 1-methyl-1-(3-methyl-4-{(E)-2-[4-oxo-2-(3-trifluoromethoxy-phenyl)-1,3,8-triaza-spiro[4.5]dec-1-ene-8-sulfonyl]-vinyl}-phenyl)-urea]
